Source: PubChem BioAssay AID342 (DTP/NCI, 2004)
Where “and” joins values, the source holds several entries; their conditions need not be identical. Equal values may be shown once.

System: Swiss mice, Sarcoma 180 sc, mean tumor weight T/C
Assay: NCI In Vivo Anticancer Drug Screen. Data for tumor model Sarcoma 180 (subcutaneous) in Swiss mice
Conditions: endpoint: mean tumor weight, higher = larger tumour
Procedure: The antitumor activity of compounds was measured in mice bearing transplantable tumors. Survival or tumor size were measured and the results are expressed as the measurement made in the treated group (T) divided by the measurement made in the vehicle treated control group (C). The tumor model used in this assay is Sarcoma 180 (subcutaneous) in Swiss mice

[1] = dose: 2.5 mg/kg/injection, schedule: Q#A X014 (ip), vehicle: methylcellulose (MC)
[2] = dose: 50.0 mg/kg/injection, schedule: Q01DX007 (sc), vehicle: steriod suspending solution
[3] = dose: 250.0 mg/kg/injection, schedule: Q01DX007 (ip), vehicle: other
[4] = dose: 375.0 mg/kg/injection, schedule: Q01DX007 (ip), vehicle: other
[5] = dose: 125.0 mg/kg/injection, schedule: Q01DX007 (ip), vehicle: saline
[6] = dose: 55.0 mg/kg/injection, schedule: Q01DX007 (ip), vehicle: carboxymethylcellulose (CMC)
[7] = dose: 125.0 mg/kg/injection, schedule: Q01DX007 (ip), vehicle: carboxymethylcellulose (CMC)
[8] = dose: 1.0 mg/kg/injection, schedule: Q#A X014 (ip), vehicle: methylcellulose (MC)
[9] = dose: 1.5 mg/kg/injection, schedule: Q#A X014 (ip), vehicle: methylcellulose (MC)

## COc1ccc2c(c1)CC[C@@H]1[C@@H]2CC[C@]2(C)C[C@@](C)(O)C[C@@H]12
dose: 0.25 mg/kg/injection, schedule: Q#A X014 (sc), vehicle: steriod suspending solution
  T/C: 100 % of control
dose: 1.25 mg/kg/injection, schedule: Q#A X014 (sc), vehicle: steriod suspending solution
  T/C: 84 % of control
[1]
  T/C: 94 % of control
dose: 10.0 mg/kg/injection, schedule: Q#A X014 (ip), vehicle: methylcellulose (MC)
  T/C: 98 % of control

## C[C@]12CC[C@H](O)C[C@H]1CC[C@@H]1[C@@H]2CC[C@]2(C)[C@@H](C3=CC(=O)OC3)[C@@H](O)C[C@]12O
dose: 3.0 mg/kg/injection, schedule: Q01DX007 (sc), vehicle: steriod suspending solution
  T/C: 78 % of control
dose: 10.0 mg/kg/injection, schedule: Q01DX007 (sc), vehicle: steriod suspending solution
  T/C: 64 % of control
dose: 25.0 mg/kg/injection, schedule: Q01DX007 (sc), vehicle: steriod suspending solution
  T/C: 50 % of control
[2]
  T/C: 70 % of control

## C=C(C)C(=O)OCC1CO1 (configuration not stated)
[3]
  T/C: 97 % of control
[4]
  T/C: 74 % of control

## O=C1c2ccccc2C(=O)c2c1ccc1c2[nH]c2ccccc21
dose: 82.0 mg/kg/injection, schedule: Q01DX007 (ip), vehicle: saline
  T/C: 48 % of control
[5]
  T/C: 50 % of control
dose: 187.0 mg/kg/injection, schedule: Q01DX007 (ip), vehicle: saline
  T/C: 23 % of control
dose: 280.0 mg/kg/injection, schedule: Q01DX007 (ip), vehicle: saline
  T/C: 42 % of control

## CC(=O)Nc1cc2c(cc1Cl)C(=O)c1cc(Cl)ccc1-2
[6]
  T/C: 75 % of control
dose: 83.0 mg/kg/injection, schedule: Q01DX007 (ip), vehicle: carboxymethylcellulose (CMC)
  T/C: 53 % of control
[7]
  T/C: 39 % of control
dose: 187.5 mg/kg/injection, schedule: Q01DX007 (ip), vehicle: carboxymethylcellulose (CMC)
  T/C: 26 % of control

## O=C(c1ccccc1)C(C(=O)c1ccccc1)C(=O)c1ccccc1.O=C(c1ccccc1)C(C(=O)c1ccccc1)C(=O)c1ccccc1.[Cu]
[6]
  T/C: 68 % of control and 70 % of control
dose: 85.0 mg/kg/injection, schedule: Q01DX007 (ip), vehicle: carboxymethylcellulose (CMC)
  T/C: 63 % of control and 84 % of control
dose: 190.0 mg/kg/injection, schedule: Q01DX007 (ip), vehicle: carboxymethylcellulose (CMC)
  T/C: 60 % of control and 64 % of control
dose: 284.0 mg/kg/injection, schedule: Q01DX007 (ip), vehicle: carboxymethylcellulose (CMC)
  T/C: 66 % of control

## CC(=O)OCC1=CC2OC(=O)C3=COC(OC4OC(CO)C(O)C(O)C4O)C1C32 (configuration not stated)
dose: 220.0 mg/kg/injection, schedule: Q01DX007 (ip), vehicle: carboxymethylcellulose (CMC)
  T/C: 67 % of control

## COc1ccc2c(c1)CC[C@@H]1[C@@H]2CC[C@@]2(C)[C@H]1CC[C@@]2(O)C(F)=C(F)F
dose: 33.0 mg/kg/injection, schedule: Q01DX007 (sc), vehicle: steriod suspending solution
  T/C: 52 % of control
[2]
  T/C: 46 % of control
dose: 75.0 mg/kg/injection, schedule: Q01DX007 (sc), vehicle: steriod suspending solution
  T/C: 44 % of control
dose: 111.0 mg/kg/injection, schedule: Q01DX007 (sc), vehicle: steriod suspending solution
  T/C: 45 % of control
dose: 167.0 mg/kg/injection, schedule: Q01DX007 (sc), vehicle: steriod suspending solution
  T/C: 37 % of control
dose: 250.0 mg/kg/injection, schedule: Q01DX007 (sc), vehicle: steriod suspending solution
  T/C: 50 % of control
dose: 375.0 mg/kg/injection, schedule: Q01DX007 (sc), vehicle: steriod suspending solution
  T/C: 55 % of control

## CC(=O)Nc1cc2c(cc1Br)-c1ccccc1C2O (configuration not stated)
dose: 48.0 mg/kg/injection, schedule: Q01DX007 (ip), vehicle: other
  T/C: 60 % of control
dose: 73.0 mg/kg/injection, schedule: Q01DX007 (ip), vehicle: other
  T/C: 93 % of control
dose: 130.0 mg/kg/injection, schedule: Q01DX007 (ip), vehicle: saline
  T/C: 40 % of control and 56 % of control
dose: 195.0 mg/kg/injection, schedule: Q01DX007 (ip), vehicle: saline
  T/C: 107 % of control
[3]
  T/C: 36 % of control
[4]
  T/C: 46 % of control
dose: 560.0 mg/kg/injection, schedule: Q01DX007 (ip), vehicle: other
  T/C: 32 % of control

## CCCCCC[C@@H](O)C/C=C\CCCCCCCC(=O)O
dose: 31.3 mg/kg/injection, schedule: Q01DX007 (ip), vehicle: saline
  T/C: 59 % of control
dose: 62.5 mg/kg/injection, schedule: Q01DX007 (ip), vehicle: saline
  T/C: 95 % of control
[5]
  T/C: 87 % of control

## Nc1nc(=O)n(C2CC(O)C(CO)O2)cc1F (configuration not stated)
dose: 22.0 mg/kg/injection, schedule: Q#A X014 (ip), vehicle: saline
  T/C: 10 % of control
dose: 33.5 mg/kg/injection, schedule: Q#A X014 (ip), vehicle: saline
  T/C: 7 % of control
dose: 50.0 mg/kg/injection, schedule: Q#A X014 (ip), vehicle: saline
  T/C: 3 % of control
dose: 75.0 mg/kg/injection, schedule: Q#A X014 (ip), vehicle: saline
  T/C: 2 % of control

## O=P(N1CCCCCC1)(N1CC1)N1CC1
[8]
  T/C: 91 % of control
dose: 1.0 mg/kg/injection, schedule: Q#A X014 (ip), vehicle: saline
  T/C: 120 % of control
[9]
  T/C: 86 % of control
dose: 1.5 mg/kg/injection, schedule: Q#A X014 (ip), vehicle: saline
  T/C: 103 % of control
dose: 2.0 mg/kg/injection, schedule: Q#A X014 (ip), vehicle: methylcellulose (MC)
  T/C: 65 % of control
dose: 2.0 mg/kg/injection, schedule: Q#A X014 (ip), vehicle: saline
  T/C: 88 % of control
dose: 3.0 mg/kg/injection, schedule: Q#A X014 (ip), vehicle: methylcellulose (MC)
  T/C: 61 % of control
dose: 3.0 mg/kg/injection, schedule: Q#A X014 (ip), vehicle: saline
  T/C: 70 % of control

## CC(C)([NH-])CO.CC(C)([NH-])CO.[Cl][Cd][Cl]
[8]
  T/C: 50 % of control
dose: 1.0 mg/kg/injection, schedule: Q#A X014 (ip), vehicle: other
  T/C: 91 % of control
[9]
  T/C: 113 % of control
dose: 1.5 mg/kg/injection, schedule: Q#A X014 (ip), vehicle: other
  T/C: 104 % of control
dose: 1.75 mg/kg/injection, schedule: Q#A X014 (ip), vehicle: methylcellulose (MC)
  T/C: 70 % of control
[1]
  T/C: 85 % of control
dose: 2.5 mg/kg/injection, schedule: Q#A X014 (ip), vehicle: other
  T/C: 85 % of control
dose: 2.65 mg/kg/injection, schedule: Q#A X014 (ip), vehicle: methylcellulose (MC)
  T/C: 73 % of control
dose: 3.75 mg/kg/injection, schedule: Q#A X014 (ip), vehicle: methylcellulose (MC)
  T/C: 73 % of control
dose: 3.75 mg/kg/injection, schedule: Q#A X014 (ip), vehicle: other
  T/C: 102 % of control
dose: 4.0 mg/kg/injection, schedule: Q#A X014 (ip), vehicle: methylcellulose (MC)
  T/C: 49 % of control
dose: 6.0 mg/kg/injection, schedule: Q#A X014 (ip), vehicle: methylcellulose (MC)
  T/C: 36 % of control

## Cc1cc(N)c2cc(NC(=O)/C=C\c3ccccc3Cl)ccc2n1
dose: 11.0 mg/kg/injection, schedule: Q01DX007 (ip), vehicle: carboxymethylcellulose (CMC)
  T/C: 89 % of control
dose: 17.0 mg/kg/injection, schedule: Q01DX007 (ip), vehicle: carboxymethylcellulose (CMC)
  T/C: 77 % of control
dose: 25.0 mg/kg/injection, schedule: Q01DX007 (ip), vehicle: carboxymethylcellulose (CMC)
  T/C: 46 % of control

## CC1=NCCc2c1cc1c([nH]c3ccccc31)c2C
dose: 25.0 mg/kg/injection, schedule: Q01DX007 (ip), vehicle: water
  T/C: 108 % of control
dose: 50.0 mg/kg/injection, schedule: Q01DX007 (ip), vehicle: water
  T/C: 91 % of control
dose: 100.0 mg/kg/injection, schedule: Q01DX007 (ip), vehicle: water
  T/C: 72 % of control
dose: 200.0 mg/kg/injection, schedule: Q01DX007 (ip), vehicle: water
  T/C: 28 % of control

## O=C(CCCl)N1CCN(C(=O)CCCl)CC1
dose: 110.0 mg/kg/injection, schedule: Q#A X014 (ip), vehicle: methylcellulose (MC)
  T/C: 66 % of control
dose: 167.5 mg/kg/injection, schedule: Q#A X014 (ip), vehicle: methylcellulose (MC)
  T/C: 54 % of control

## CS(=O)(=O)OCC(O)C(O)COS(C)(=O)=O (configuration not stated)
[7]
  T/C: 74 % of control
dose: 250.0 mg/kg/injection, schedule: Q01DX007 (ip), vehicle: carboxymethylcellulose (CMC)
  T/C: 65 % of control
dose: 500.0 mg/kg/injection, schedule: Q01DX007 (ip), vehicle: carboxymethylcellulose (CMC)
  T/C: 51 % of control
dose: 1000.0 mg/kg/injection, schedule: Q01DX007 (ip), vehicle: carboxymethylcellulose (CMC)
  T/C: 45 % of control
